# Experimental data published in patent US20080119412A1, “Polypeptides for Modulating Binding of Trp Channel Proteins and Trp- Associated Proteins” (NoNO Inc., priority 2003, published 2008).
# Residues, ends and D or L forms follow the SMILES beside them. *: point of attachment. Biotin = O=C1N[C@H]2[C@H](CS[C@H]2CCCCC(=O)*)N1
# Experiments:
# Assay in all cases: G3 assay titration, GST-PDZ fusion / biotinylated peptide
# Type in all cases: binding
# SITAC-18 d2 = molecular target: T1, SITAC-18 d2 (Homo sapiens, UniProt Q9H190)
# T1 construct: made in house; host or cells: E. coli (DH5alpha, BL21 or JM109)
# T1 sequence (Q9H190 with tags, fused parts or gaps): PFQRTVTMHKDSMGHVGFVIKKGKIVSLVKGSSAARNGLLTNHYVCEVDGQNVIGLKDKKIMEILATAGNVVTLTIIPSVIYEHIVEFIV
# Mint 1 (d1, d2) = molecular target: T2, Mint 1 (d1, d2) (Homo sapiens, UniProt Q02410, K730E)
# T2 construct: made in house; host or cells: E. coli (DH5alpha, BL21 or JM109)
# T2 sequence (Q02410 651-828 K730E): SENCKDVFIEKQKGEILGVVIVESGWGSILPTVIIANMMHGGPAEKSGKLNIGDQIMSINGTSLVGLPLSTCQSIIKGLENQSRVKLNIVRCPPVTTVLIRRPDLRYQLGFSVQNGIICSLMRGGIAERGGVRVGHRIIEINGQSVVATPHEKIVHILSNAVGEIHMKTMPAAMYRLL
# MAST2 d1 = molecular target: T3, MAST2 d1 (Homo sapiens, UniProt Q6P0Q8)
# T3 construct: made in house; host or cells: E. coli (DH5alpha, BL21 or JM109)
# T3 sequence (Q6P0Q8 with tags, fused parts or gaps): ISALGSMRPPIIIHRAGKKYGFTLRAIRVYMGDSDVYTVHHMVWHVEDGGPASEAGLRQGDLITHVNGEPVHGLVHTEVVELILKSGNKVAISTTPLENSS
# RIM2 d1 = molecular target: T4, RIM2 d1 (Homo sapiens, UniProt Q9UQ26)
# T4 construct: made in house; host or cells: E. coli (DH5alpha, BL21 or JM109)
# T4 sequence (Q9UQ26 632-757): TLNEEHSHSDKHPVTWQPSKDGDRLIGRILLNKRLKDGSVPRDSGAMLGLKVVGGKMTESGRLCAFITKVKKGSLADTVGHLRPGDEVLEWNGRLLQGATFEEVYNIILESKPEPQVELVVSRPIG
# LIM Mystique d1 = molecular target: T5, LIM Mystique d1 (Homo sapiens, UniProt Q96JY6)
# T5 construct: made in house; host or cells: E. coli (DH5alpha, BL21 or JM109)
# T5 sequence (Q96JY6 1-91): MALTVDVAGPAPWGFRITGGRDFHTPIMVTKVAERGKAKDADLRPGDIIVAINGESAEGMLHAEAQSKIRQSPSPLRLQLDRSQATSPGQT
# INADL d3 = molecular target: T6, INADL d3 (Homo sapiens, UniProt Q8NI35)
# T6 construct: made in house; host or cells: E. coli (DH5alpha, BL21 or JM109)
# T6 sequence (Q8NI35 with tags, fused parts or gaps): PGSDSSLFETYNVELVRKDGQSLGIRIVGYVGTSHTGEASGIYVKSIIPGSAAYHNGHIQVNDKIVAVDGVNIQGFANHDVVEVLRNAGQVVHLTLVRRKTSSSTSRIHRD
# Outline: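 ELISA with anti-GST-captured GST-PDZ fusions (5 μg/ml), probed by biotinylated Tat-TRPM7 C-terminal peptide precomplexed 20 min with HRP-streptavidin. Binding ran 30 min at room temperature; TMB read at 450 nm. Peptide was titrated from 0.002 to 2 μM and data fitted to a binding equation.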
# PAR3 d3 = molecular target: T7, PAR3 d3 (Homo sapiens, UniProt Q8TEW0, R682S)
# T7 construct: made in house; host or cells: E. coli (DH5alpha, BL21 or JM109)
# T7 sequence (Q8TEW0 with tags, fused parts or gaps R682S): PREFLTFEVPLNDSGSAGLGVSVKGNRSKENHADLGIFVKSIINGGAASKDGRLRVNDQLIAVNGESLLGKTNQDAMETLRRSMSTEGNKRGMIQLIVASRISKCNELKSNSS
structure (smiles),measurement,setting,value
CSCC[C@H](NC(=O)[C@H](CC(C)C)NC(=O)[C@H](CCCNC(=N)N)NC(=O)[C@@H](NC(=O)[C@H](CO)NC(=O)[C@H](CC(N)=O)NC(=O)[C@@H](NC(=O)[C@H](CO)NC(=O)[C@H](CCCNC(=N)N)NC(=O)[C@H](CCCNC(=N)N)NC(=O)[C@H](CCCNC(=N)N)NC(=O)[C@H](CCC(N)=O)NC(=O)[C@H](CCCNC(=N)N)NC(=O)[C@H](CCCNC(=N)N)NC(=O)[C@H](CCCCN)NC(=O)[C@H](CCCCN)NC(=O)[C@H](CCCNC(=N)N)NC(=O)CNC(=O)[C@H](Cc1ccc(O)cc1)NC(=O)CCCC[C@@H]1SC[C@@H]2NC(=O)N[C@@H]21)[C@@H](C)O)C(C)C)C(=O)N[C@@H](CC(C)C)C(=O)O [Tat-TRPM7 peptide] (Biotin-YGRKKRRQRRRSTNSVRLML-OH),EC50,SITAC-18 d2,90 nM
same,EC50,"Mint 1 (d1, d2)",180 nM
same,EC50,MAST2 d1,110 nM
same,EC50,RIM2 d1,47 nM
same,EC50,LIM Mystique d1,90 nM
same,EC50,INADL d3,120 nM
same,EC50,PAR3 d3,18 nM
